Patent publication US5094944A, “Flourescent aquatic bioassay and procedure” (priority 1990, dated 1992)
Values after ≈ are worked out from the molar mass of the structure shown.

Tests used:
Daphnia magna [1] = assay: whole plant or invertebrate; type: in vivo; details: for EC50: Daphnia magna, read-out: Mean EC50
Procedure: Determination of the EC50 Value in Test Tubes
Using Daphnia magna as a test species a series of test concentrations of the standard reference toxicant CuSO4 was established in triplicate. Each replicate consisted of 10 ml of test media in a 15 ml glass test tube. Five organisms were placed in each tube. The tubes were then maintained for a period of one hour at ambient room environmental conditions. At the end of one hour 0.4 mg of the substrate 4-Methylumbelliferyl b-D-galactoside (MUF) was added. Fifteen minutes after the addition of the MUF the test tubes were taken into a dark room. […] A record was made of the number of strongly fluorescing Daphnia magna bodies. […] These organisms were then compared to each of the other triplicate concentrations.
The data was then analyzed statistically by conventional methods (Methods for Measuring the Acute Toxicity of Effluents to Freshwater and Marine Organisms (Third Edition) EPA/600/4-85/013).
11 standard reference toxicants were then analyzed by the above method. […]

Daphnia magna [2] = assay: Daphnia magna fluorescence bioassay in a multiwell plate (Example 1); type: in vivo; set-up: key to fluorescence of Daphnia magna: fluorescing; nonfluorescing; details: for fluorescence of Daphnia magna / survival (all alive): replicates #1, #2, #3
Description: Determination of an EC50 Value in a Multiwell Plate
The objective of this example was to determine the EC50 value and its confidence limits for the test substance copper sulfate ([…]) to the common water flea, Daphnia magna.
Using the invertebrate Daphnia magna as a test species a series of test concentratins are established with the standard reference toxicant copper sulfate, CuSo4, in triplicate at the following concentrations:
One ml of each of the above CuSO4 solutions was pippetted into a mutiwell plate (3 replications per concentration, 1 ml per replicate). To each of 18 wells in the plate 5 Daphnia magna were added and exposed to the test concentrations for a period of five minutes. Then to each of the 18 wells, with the exception of 0-B 1, 2 and 3, 1.0 mg of 4-Methylumbelliferyl b-D-Galactoside (MUF) was dropped onto the surface of each well. The powder settled to the bottom of each well. After 1 minute of exposure, each sample was read. An ultra-violet light (black light) was held over the multiwell in a dark room. The fluorescent intensity of Controls 0-A ppm (maximum intensity) and Controls 0-B ppm (minimum intensity) were utilized as baselines to compare the effects of test concentrations 0.01 through 10.0 ppm CuSO4.

[3] = Table 2, three tests at different times per toxicant, 1 hour exposure, 15 minutes after MUF

c1ccccc1 [Benzene]
EC50 (Daphnia magna [1]; 1 h): 6.5 µg/mL (≈ 83.2 µM)

[Cd] [Cd, cadmium]
Mean EC50 (Daphnia magna [1]; [3]): 0.41 ppm

[Cr] [Cr, chromium]
Mean EC50 (Daphnia magna [1]; [3]): 3.7 ppm

[Cu] [Cu, copper]
EC50 for Cu with Daphnia magna (Daphnia magna [1]; test tubes, 1 hour exposure, 15 minutes after MUF): 0.23 ppm

C=O [Formaldehyde]
EC50 (Daphnia magna [1]; 1 h): 39.2 µg/mL (≈ 1310 µM)

CCCCCCCCCCCCOS(=O)(=O)O [NaLS]
EC50 (Daphnia magna [1]; [3]): 74.1 µg/mL (≈ 278 µM)

Oc1c(Cl)c(Cl)c(Cl)c(Cl)c1Cl [NaPCP]
EC50 (Daphnia magna [1]; [3]): 1 µg/mL (≈ 3.75 µM)

Oc1ccccc1 [Phenol]
EC50 (Daphnia magna [1]; 1 h): 37.1 µg/mL (≈ 394 µM)

Cc1ccccc1 [Toluene]
EC50 (Daphnia magna [1]; 1 h): 6.3 µg/mL (≈ 68.4 µM)

[Zn] [Zn, zinc]
Mean EC50 (Daphnia magna [1]; [3]): 4.3 ppm

copper sulfate [CuSO4]
fluorescence of Daphnia magna (Daphnia magna [2]; 0.01 ppm): f | survival (all alive) (Daphnia magna [2]; 0.01 ppm): all alive | fluorescence of Daphnia magna (Daphnia magna [2]; 0.1 ppm): f | survival (all alive) (Daphnia magna [2]; 0.1 ppm): all alive | fluorescence of Daphnia magna (Daphnia magna [2]; 1.0 ppm): f | survival (all alive) (Daphnia magna [2]; 1.0 ppm): all alive | sublethal adverse affect detected (Daphnia magna [2]; 10.0 ppm, in less than 10 minutes): sublethal adverse affect | fluorescence of Daphnia magna (Daphnia magna [2]; 10.0 ppm): nf | survival (all alive) (Daphnia magna [2]; 10.0 ppm): all alive | EC50 (Daphnia magna [2]; multiwell plate, 5 minutes exposure, MUF substrate, read after 1 minute): 3.2 ppm

mercury [Hg]
Mean EC50 (Daphnia magna [1]; [3]): 0.02 ppm
